According to the METLIN SMRT retention time set (Domingo-Almenara et al. 2019):

Test: gradient 5% acetonitrile 3 min, to 50% in 2 min, to 85% in 15 min, held 3 min, 100 µL/min
Settings: column: Zorbax Extend-C18 2.1 x 50 mm; eluents: water / acetonitrile, 0.1% formic acid
Outline: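 Over 3 months, pure standards in mixtures of ~100 molecules were run by HPLC coupled to a quadrupole time-of-flight mass spectrometer in positive and negative ionization mode. The column was a Zorbax Extend-C18 (2.1 × 50 mm, 1.8 μm) at 100 μL/min, eluted with water and acetonitrile each holding 0.1% formic acid, with 40 μL dead and 900 μL dwell volumes. Retention time was determined from adduct peaks chosen by software and checked manually.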

Work on `Cc1ccc(CNC(=O)c2ccc3ccnc(N4CCN(c5ccc(Cl)cc5)CC4)c3c2)o1` yielded an RP-LC retention time of 887 s.

`COc1ccc(-c2nnc(N3CCC(C(=O)NC(C)c4ccccn4)CC3)o2)cc1` (configuration not stated) gave an RP-LC retention time of 621 s.

For `Cc1cc(=O)n(CC(=O)NCc2ccc(F)cc2F)c(N2CCOCC2)n1`, the RP-LC retention time was 756 s.

For `COc1ccc(NC(=O)c2c(O)c3cccnc3n(-c3ccc(OC)cc3)c2=O)cc1`, the RP-LC retention time was 800 s.

Molecule `CCOC(=O)C(C)(C)Sc1nnc(N2CCN(c3ccccc3)CC2)s1` has an RP-LC retention time of 997 s.

Work on `Cc1noc(C)c1S(=O)(=O)N1CCC(N2CC3(CCCCC3)C2c2ccccc2)CC1` (configuration not stated) yielded an RP-LC retention time of 790 s.

For `CCCn1cc(S(=O)(=O)NCc2ccccc2)c2cccnc21`, the RP-LC retention time was 863 s.

Work on `O=C(c1cc(-c2ccncc2)n[nH]1)N1CCC(C(=O)N2CCc3ccccc3C2)CC1` yielded an RP-LC retention time of 614 s.

Work on `Cc1[nH]c(C(=O)N2CCC(CC(=O)N(C)Cc3ccco3)CC2)c(C)c1C(=O)OC(C)C` yielded an RP-LC retention time of 798 s.

`CC1CCN(S(=O)(=O)c2ccc(-c3nnc(C(=O)N4CCN(C)CC4)o3)cc2)CC1` showed an RP-LC retention time of 665 s.

Work on `CCCN1CC[C@@H]2c3cc(O)ccc3CC[C@@H]21` yielded an RP-LC retention time of 593 s.

`COCCC1CCN(C(=O)Cc2c(C)noc2C)CC1` showed an RP-LC retention time of 636 s.

`Cc1ccc(-c2nc3ccccn3c2Nc2ccccc2C)cc1` gave an RP-LC retention time of 731 s.

Work on `Cc1ccc(NC(=O)C2CCCN(C(=O)C3Sc4ccccc4NC3=O)C2)cc1F` (configuration not stated) yielded an RP-LC retention time of 844 s.

`CCc1ccc(-n2ncc3c(=O)n(Cc4nc(-c5ccc(SC)cc5)no4)cnc32)cc1` showed an RP-LC retention time of 1210 s.

In the case of `O=C(CCc1nc(-c2ccc(N3CCCC3)cc2)no1)N1CCN(c2ncccn2)CC1`, the RP-LC retention time is reported as 957 s.

In the case of `CS(=O)(=O)Nc1ccc(N2CCCCS2(=O)=O)cc1`, the RP-LC retention time is reported as 615 s.

In the case of `Cc1cc(C)c2c(N3CCOCC3)nc(C(=O)NCCN3CCCCCC3)nc2n1`, the RP-LC retention time is reported as 555 s.

`Cc1nn(C2CCS(=O)(=O)C2)c(C)c1N1CCN(C(=O)c2cc3ccccc3[nH]2)CC1` (configuration not stated) gave an RP-LC retention time of 747 s.

Molecule `O=C1CCN(C(=O)C2COc3ccccc3O2)CCOCCN1` (configuration not stated) has an RP-LC retention time of 634 s.

For `O=C(CCn1cnc2cc(-c3noc(Cc4cccs4)n3)ccc21)N1CCCC1`, the RP-LC retention time was 691 s.

Molecule `Cc1cccc2nnc(N3CCC(C(=O)NCc4ccccc4Cl)CC3)n12` has an RP-LC retention time of 679 s.

With `O=C(NCc1ccccn1)c1c(OCC2CC2)cc(=O)n2c1CCCCC2` the RP-LC retention time was 586 s.

`CC(C)c1ccc(NC(=O)Cn2cnc3nc(N4CCCC(C(=O)NC5CC5)C4)sc3c2=O)cc1` (configuration not stated) showed an RP-LC retention time of 754 s.

With `Cc1ccc2c(c1)OCC(=O)N2Cc1nc(-c2cccc(Cl)c2)no1` the RP-LC retention time was 1160 s.

For `Cc1noc(C)c1Cc1c(C(=O)N2CCC3(CCC3O)CC2)noc1C` (configuration not stated), the RP-LC retention time was 680 s.

`COc1ccc(Cl)cc1NC(=O)c1cnc(N2CCN(c3ncccn3)CC2)c2ccccc12` gave an RP-LC retention time of 1090 s.

`CC(C)CC(=O)N1CCc2nc(-c3ccccc3)ncc2C1` gave an RP-LC retention time of 868 s.

Work on `CCCC1c2nccn2CCCN1C(=O)c1ccoc1C` (configuration not stated) yielded an RP-LC retention time of 592 s.

With `Cc1ccc(CNC(=O)c2sc(-c3cn(C)c4ncccc34)nc2C)cc1` the RP-LC retention time was 784 s.

For `COc1cc2c(CCNC(C)=O)c[nH]c2cc1Cl`, the RP-LC retention time was 754 s.

With `CC(=O)Nc1ccc(S(=O)(=O)NC2(c3nc(C4CC4)no3)CCCCC2)cc1Cl` the RP-LC retention time was 813 s.

`CC(C)(C)c1ccc(-c2nc(C3CC(=O)N(c4ccc(Cl)cc4)C3)no2)cc1` (configuration not stated) showed an RP-LC retention time of 861 s.

`CCCC(NC(=O)c1ccc2c(c1)OCO2)C(=O)Nc1nc2ccccc2[nH]1` (configuration not stated) gave an RP-LC retention time of 670 s.

Molecule `COC(=O)c1cnc(N2CCN(C3CCCCC3)CC2)c2ccccc12` has an RP-LC retention time of 683 s.

In the case of `O=C1CC(C(=O)N(Cc2cccnc2)c2nc3ccccc3s2)CN1c1ccccc1` (configuration not stated), the RP-LC retention time is reported as 695 s.

`Clc1ccc(Cl)c(-c2ccc(CNC3CC3)o2)c1` showed an RP-LC retention time of 698 s.

In the case of `Cc1ccc(-c2nc(NC(=O)/C=C/c3ccc(Cl)cc3)sc2C)cc1`, the RP-LC retention time is reported as 1300 s.

With `CCCS(=O)(=O)c1nc2ccc(NS(=O)(=O)c3ccccc3F)cc2s1` the RP-LC retention time was 882 s.

In the case of `CC(=O)N1CCc2nn(CC(=O)Nc3ccc(F)c(F)c3)c(=O)cc2C1`, the RP-LC retention time is reported as 644 s.

Work on `O=C(NCc1nc(-c2ccc(N3CCCCCC3)cc2)no1)c1ccco1` yielded an RP-LC retention time of 1020 s.

In the case of `COc1ccc(S(=O)(=O)N2CCN(c3cc(C)nc(NC4CCCCC4)n3)CC2)cc1`, the RP-LC retention time is reported as 770 s.

In the case of `COc1cccc(CNC(=O)Cn2cnc3nc(N4CCC(C(=O)NC5CC5)CC4)sc3c2=O)c1`, the RP-LC retention time is reported as 646 s.

Molecule `O=S(=O)(NC1CCCCCC1)c1cc(-c2cc(C(F)(F)F)on2)cs1` has an RP-LC retention time of 1200 s.

In the case of `COc1c(C)cc(S(=O)(=O)NCCN2CCOCC2)c(C)c1C`, the RP-LC retention time is reported as 568 s.

Molecule `NS(=O)(=O)c1ccc(NC(=O)C2(c3cc(-c4ccco4)on3)CC2)cc1` has an RP-LC retention time of 745 s.

With `Cc1ccc(CCNC(=O)Cn2c(C)nc3onc(C)c3c2=O)cc1` the RP-LC retention time was 787 s.

For `COc1c(C(=O)NC2CC2)sc2cc(Cl)ccc12`, the RP-LC retention time was 965 s.

`Cc1ccc(S(=O)(=O)N2CCc3c(c(-c4nnc(-c5ccc(F)cc5)o4)nn3C)C2)c(C)c1` gave an RP-LC retention time of 1060 s.

`CCOC(=O)C1CCCN(Cc2nc3nc(C)cc(N4CCOCC4)n3n2)C1` (configuration not stated) gave an RP-LC retention time of 576 s.

With `O=C1NCCCn2cc(S(=O)(=O)N3CCN(Cc4ccccc4)CC3)cc21` the RP-LC retention time was 758 s.

With `CN(C)c1ccc(CNC(=O)C2CCN(c3cc(N4CCSCC4)ncn3)CC2)cc1` the RP-LC retention time was 579 s.

For `CCOC(=O)c1nc(Nc2ccccc2OCC)c2ccccc2n1`, the RP-LC retention time was 942 s.

With `COCCN1C(=O)c2ccccc2C(C(=O)NCc2ccccc2OC)C1c1ccc(F)cc1` (configuration not stated) the RP-LC retention time was 924 s.

Molecule `CCc1nc(C)c(C)c2nn(Cc3cccc(C#N)c3)c(=O)n12` has an RP-LC retention time of 919 s.

With `Cc1nc(C)c(C(=O)N2CCCC(c3nn(C)c(=O)n3-c3ccccc3)C2)s1` (configuration not stated) the RP-LC retention time was 641 s.

`O=C(Nc1cccc(Cl)c1)N1CCN(c2cnn3c(C4CC4)nnc3c2)CC1` gave an RP-LC retention time of 694 s.

Molecule `C=C1C(=O)O[C@@H]2[C@H]3O[C@]3(C)CC/C=C(\C)CC[C@@H]12` has an RP-LC retention time of 898 s.

Molecule `Cc1ccc(NC(=O)C2CC(=O)N(CCc3c[nH]c4ccc(F)cc34)C2)c(C)c1` (configuration not stated) has an RP-LC retention time of 847 s.

For `CCC(C)NC(=O)Cn1ncc2c(c1=O)N(C)C(=O)CS2` (configuration not stated), the RP-LC retention time was 606 s.

For `COCCn1c(CC2CCN(S(=O)(=O)c3ccc(OC)cc3)C2)nc2cccnc21` (configuration not stated), the RP-LC retention time was 668 s.

In the case of `C[C@@H](c1ncncc1F)[C@@](O)(Cn1cncn1)c1ccc(F)cc1F`, the RP-LC retention time is reported as 870 s.

Molecule `O=C(C1CC(=O)N(c2n[nH]c3cccc(F)c23)C1)N1CCN(c2ccccc2)CC1` (configuration not stated) has an RP-LC retention time of 718 s.

Molecule `CCOC(=O)C1CCCN(C(=O)c2cccc3c2SCCC3=O)C1` (configuration not stated) has an RP-LC retention time of 780 s.

Molecule `OCCN1CCN(CC(O)COc2ccc3c(c2)CCC3)CC1` (configuration not stated) has an RP-LC retention time of 553 s.

With `Cc1cc(C)n(-c2ncnc3c2cnn3Cc2ccccc2)n1` the RP-LC retention time was 1240 s.

`CSc1ccc(CCNC(=O)c2ccc3c(c2)nc(C)c(=O)n3C)cc1` gave an RP-LC retention time of 765 s.
